Like-named read-outs stand apart in the source and are kept apart here.
What was measured:
[1] = system: in vitro and murine xenograft models; conditions: BI 2536 combined with cisplatin, cited from earlier work
Plk = system: Plk; parameters: method as in PMID 19383823; conditions: cited from earlier work
[2] = parameters: method as in PMID 19383823; conditions: preclinical studies, compared with BI 2536; cited from earlier work
[3] = Plasma pharmacokinetics of volasertib and CD 10899 (HPLC-MS/MS); type: in vivo, human; conditions: for clearance / Vd / half-life: human, intravenous; for clearance / Vd / half-life / AUC0-∞,norm, gMean / Cmax,norm, gMean: plasma; for clearance / Vd / half-life / AUC0-∞,norm, gMean: n = 28; for clearance: read-out: CL (total clearance), gMean; for Vd: read-out: Vss (apparent volume of distribution at steady state), gMean; for half-life: read-out: t1/2 (terminal half-life), gMean (converted)
Procedure: Blood was collected at specified time points during the first and second cycles of each treatment schedule for pharmacokinetic analyses to determine the plasma concentration of volasertib and/or total platinum. Plasma concentrations in cycle 1 were determined before the start of platinum infusions (–1 hour 35 minutes relative to the start of the volasertib infusion), shortly before the end of platinum infusion (–30 minutes), during volasertib infusion (1 hour), immediately before the end of volasertib infusion (2 hours), and at 3, 8, 24, 48, 168, and 336 hours after the start of volasertib infusion. The plasma concentrations in cycle 2 were determined before the start of platinum infusions (–1 hour 35 minutes), shortly before end of platinum infusion (–30 minutes), and immediately before the end of volasertib infusion (2 hours). Plasma concentrations of both volasertib and CD 10899, the predominant circulating hydroxylated metabolite of volasertib previously identified in early clinical studies of volasertib metabolism in cancer patients, were determined simultaneously by validated high performance liquid chromatography-tandem mass spectrometry (HPLC-MS/MS) assay using [D3]volasertib and [D3]CD 10899 as internal standards. The samples were subjected to solid-phase extraction in a 96-well plate format. Chromatography was achieved on an analytical reversed-phase HPLC column with gradient elution. The substances were detected and quantified by HPLC-MS/MS using electrospray ionization in the positive ion mode. Assay performance during the study was assessed by back-calculation of calibration standards, tabulation of the standard curve fit function parameters and measurement of quality control samples. […] Samples were diluted and acidified prior to analysis and were introduced into the ICP-MS system without further sample preparation. The ions were separated and detected in the mass spectrometer and the peak areas of platinum and lutetium were determined.

[4] = system: patients with progressive advanced or metastatic solid tumors; parameters: method as in PMID 22119200; conditions: cited from earlier work
[5] = system: unrelated kinases (>50 other kinases); parameters: method as in PMID 19383823; conditions: at concentrations up to 10 μM; cited from earlier work
[6] = volasertib combined with carboplatin
[7] = volasertib combined with cisplatin

## CC[C@@H]1C(=O)N(C)c2cnc(Nc3ccc(C(=O)NC4CCN(C)CC4)cc3OC)nc2N1C1CCCC1 [BI 2536]
[1]; in vitro and murine xenograft models
  Efficacy compared with cisplatin alone: improved efficacy
[1]; preclinical data
  Combination effect versus either therapy alone: may confer synergism

## CC[C@@H]1C(=O)N(C)c2cnc(Nc3ccc(C(=O)N[C@H]4CC[C@H](N5CCN(CC6CC6)CC5)CC4)cc3OC)nc2N1C(C)C [Volasertib]
Plk
  Concentrations at which Plk is targeted (mitotic arrest and apoptosis): low nanomolar concentrations
[2]
  Terminal half-life (t1/2): long terminal half-life
  Volume of distribution: high volume of distribution
[3]; co-administration
  Influence of cisplatin or carboplatin on the pharmacokinetics or metabolism of volasertib: no influence
[3]; [6]
  clearance: 865 mL/min
  Vd: 7550 L
  half-life: 166 h
[3]; [7]
  clearance: 999 mL/min
  Vd: 6780 L
  half-life: 137 h
[3]; volasertib i.v. infusion combined with carboplatin
  AUC0-∞,norm, gMean: 19.3 [ng · h/mL]/mg
[3]; volasertib i.v. infusion combined with carboplatin, n = 29
  Cmax,norm, gMean: 1.40 [ng/mL]/mg
[3]; volasertib i.v. infusion combined with cisplatin
  AUC0-∞,norm, gMean: 16.7 [ng · h/mL]/mg
[3]; volasertib i.v. infusion combined with cisplatin, n = 30
  Cmax,norm, gMean: 1.29 [ng/mL]/mg
[4]; phase I study, monotherapy
  MTD of single-agent volasertib: 400 mg
[4]; single agent, based on overall tolerability
  Recommended dose for further clinical investigation: 300 mg
[4]; single agent, urothelial cancer, ovarian cancer, or melanoma
  Patients with confirmed partial response (PR): three patients
[5]
  Inhibition of unrelated kinases (>50 other kinases): does not inhibit

Reference: publication PMC4435638, “Phase I trial of volasertib, a Polo-like kinase inhibitor, plus platinum agents in solid tumors: safety, pharmacokinetics and activity” (Investigational New Drugs, 2015)
